“Also recorded” adds a separate entry of the source.
Legend:
Neuropeptide Y Y1 = Neuropeptide Y Y1 (Homo sapiens, UniProt P25929); assay: Eurofins radioligand binding
Imidazoline I2, Central = assay: Eurofins radioligand binding; details: Rat
Dopamine D4.2 = Dopamine D4.2 (Homo sapiens, UniProt P21917, DEL265-296); assay: Eurofins radioligand binding
mice = assay: modified Irwin neurological test battery; type: in vivo, mouse; details: result in words
Method: To assess peripheral cholinergic toxicity, a modified Irwin neurological battery was performed to score autonomic or somatosensory side effects (Figure ).

GABAA, Muscimol, Central = assay: Eurofins radioligand binding; details: Rat
[1] = target: Transporter, Dopamine (DAT) (Homo sapiens, UniProt Q01959); assay: Eurofins radioligand binding
Sequence of Transporter, Dopamine (DAT) (Q01959 whole entry): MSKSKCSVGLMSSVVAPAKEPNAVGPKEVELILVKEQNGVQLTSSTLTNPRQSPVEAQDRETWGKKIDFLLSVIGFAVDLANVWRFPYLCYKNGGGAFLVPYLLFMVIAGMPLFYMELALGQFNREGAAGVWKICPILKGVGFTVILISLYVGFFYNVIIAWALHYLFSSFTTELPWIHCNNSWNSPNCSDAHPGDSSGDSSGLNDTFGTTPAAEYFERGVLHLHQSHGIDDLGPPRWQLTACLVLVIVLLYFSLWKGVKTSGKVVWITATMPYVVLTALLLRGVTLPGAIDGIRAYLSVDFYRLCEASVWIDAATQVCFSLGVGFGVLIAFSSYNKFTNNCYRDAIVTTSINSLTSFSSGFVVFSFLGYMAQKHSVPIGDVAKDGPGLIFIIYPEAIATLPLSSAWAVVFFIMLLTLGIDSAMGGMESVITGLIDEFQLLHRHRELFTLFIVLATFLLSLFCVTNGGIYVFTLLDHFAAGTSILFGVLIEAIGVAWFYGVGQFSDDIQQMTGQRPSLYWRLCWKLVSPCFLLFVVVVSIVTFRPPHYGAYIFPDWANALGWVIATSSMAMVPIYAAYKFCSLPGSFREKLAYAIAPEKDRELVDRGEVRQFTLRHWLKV

Sprague-Dawley rats = assay: novel object recognition (NOR); type: in vivo, rat
Method: monitored continuously and scored for behavioral manifestations of seizure activity at 5, 15, 30 min, and 1 h. Behavioral manifestations of seizures were scored using a modified Racine scoring system. Briefly, a score of 0 represents no behavior alterations; score 1, immobility, mouth and facial movements, or facial clonus; score 2, head nodding, tail extension; score 3, forelimb clonus, repetitive movements; score 4, rearing and tonic clonic seizure; and score 5, continuous rearing and falling, severe generalized tonic clonic seizure.
Novel Object Recognition Task
Rats were habituated for 10 min for 2 consecutive days in an empty novel object recognition (NOR) arena consisting of dark-colored plexiglass box (40 × 64 × 33 cm3). On day 3 rats were administered vehicle, M1 PAM 3 (1-10 mg/kg, p.o.., 10 mL/kg, n = 13-18), or M 1 PAM 5 (0.3-3 mg/kg, p.o.., 10 mL/kg, n = 16-18) and returned to their home cage for 60 min (M 1 PAM 5) or 2 hr (M1 PAM 3. Rats were then placed in the NOR arena containing two identical objects for 10 min. Following the exposure period, rats were placed back into their home cages for 24 h. The rats were then returned to the arena in which one of the previously exposed (familiar) objects was replaced by a novel object and were video recorded for 5 min while they explored the two objects.
Time spent exploring each object was scored by an observer blinded to the experimental conditions and the recognition index was calculated as [(time spent exploring novel object) – (time spent exploring familiar object)]/total time exploring objects.

[2] = target: Leukotriene, Cysteinyl CysLT1 (Homo sapiens, UniProt Q9Y271); assay: Eurofins radioligand binding
Sequence of Leukotriene, Cysteinyl CysLT1 (Q9Y271 whole entry): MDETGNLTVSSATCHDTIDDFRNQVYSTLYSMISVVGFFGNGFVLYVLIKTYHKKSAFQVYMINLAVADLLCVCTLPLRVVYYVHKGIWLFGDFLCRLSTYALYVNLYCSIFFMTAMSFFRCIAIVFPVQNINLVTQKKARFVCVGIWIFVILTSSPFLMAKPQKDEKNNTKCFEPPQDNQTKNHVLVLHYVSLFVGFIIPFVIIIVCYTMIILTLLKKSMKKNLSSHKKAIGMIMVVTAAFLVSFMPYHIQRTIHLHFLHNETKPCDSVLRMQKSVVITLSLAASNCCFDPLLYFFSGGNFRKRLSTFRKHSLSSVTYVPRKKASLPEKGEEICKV

CYP450 = assay: time-dependent CYP450 inhibition; type: in vitro ADME; details: result in words
Adenosine A3 = Adenosine A3 (Homo sapiens, UniProt P0DMS8); assay: Eurofins radioligand binding
Sequence of Adenosine A3 (P0DMS8 whole entry): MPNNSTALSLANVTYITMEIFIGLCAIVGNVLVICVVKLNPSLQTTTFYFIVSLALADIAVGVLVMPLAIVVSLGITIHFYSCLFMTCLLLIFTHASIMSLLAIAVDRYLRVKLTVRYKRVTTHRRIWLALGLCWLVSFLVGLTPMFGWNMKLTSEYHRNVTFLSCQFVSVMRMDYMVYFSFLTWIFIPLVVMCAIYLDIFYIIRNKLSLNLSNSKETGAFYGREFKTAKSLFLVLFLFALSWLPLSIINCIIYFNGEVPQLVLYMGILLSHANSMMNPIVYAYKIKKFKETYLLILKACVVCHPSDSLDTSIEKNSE

Interleukin IL-1 R1 = Interleukin IL-1 R1 (Homo sapiens, UniProt P14778); assay: Eurofins radioligand binding
Sequence of Interleukin IL-1 R1 (P14778 18-569): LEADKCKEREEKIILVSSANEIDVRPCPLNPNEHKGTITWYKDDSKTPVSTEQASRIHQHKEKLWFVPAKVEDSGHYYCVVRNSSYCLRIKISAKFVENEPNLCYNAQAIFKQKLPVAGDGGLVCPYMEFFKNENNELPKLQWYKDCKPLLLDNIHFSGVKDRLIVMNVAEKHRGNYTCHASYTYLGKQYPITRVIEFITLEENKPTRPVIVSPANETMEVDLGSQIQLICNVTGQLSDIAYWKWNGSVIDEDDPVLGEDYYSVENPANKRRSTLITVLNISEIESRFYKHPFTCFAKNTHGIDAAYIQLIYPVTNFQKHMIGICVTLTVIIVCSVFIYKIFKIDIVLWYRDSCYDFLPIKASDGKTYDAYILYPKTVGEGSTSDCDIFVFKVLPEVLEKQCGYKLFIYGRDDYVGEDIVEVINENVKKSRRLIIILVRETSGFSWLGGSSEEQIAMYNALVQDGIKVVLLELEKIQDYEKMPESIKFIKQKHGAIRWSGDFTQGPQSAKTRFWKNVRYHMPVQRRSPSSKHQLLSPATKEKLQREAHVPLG

Transporter, GABA = Transporter, GABA (Rattus norvegicus, UniProt P23978); assay: Eurofins radioligand binding
[3] = test system: GABAA, Flunitrazepam, Central; assay: Eurofins radioligand binding; details: Rat
Muscarinic M2 = Muscarinic M2 (Homo sapiens, UniProt P08172); assay: Eurofins radioligand binding
Sequence of Muscarinic M2 (P08172 whole entry): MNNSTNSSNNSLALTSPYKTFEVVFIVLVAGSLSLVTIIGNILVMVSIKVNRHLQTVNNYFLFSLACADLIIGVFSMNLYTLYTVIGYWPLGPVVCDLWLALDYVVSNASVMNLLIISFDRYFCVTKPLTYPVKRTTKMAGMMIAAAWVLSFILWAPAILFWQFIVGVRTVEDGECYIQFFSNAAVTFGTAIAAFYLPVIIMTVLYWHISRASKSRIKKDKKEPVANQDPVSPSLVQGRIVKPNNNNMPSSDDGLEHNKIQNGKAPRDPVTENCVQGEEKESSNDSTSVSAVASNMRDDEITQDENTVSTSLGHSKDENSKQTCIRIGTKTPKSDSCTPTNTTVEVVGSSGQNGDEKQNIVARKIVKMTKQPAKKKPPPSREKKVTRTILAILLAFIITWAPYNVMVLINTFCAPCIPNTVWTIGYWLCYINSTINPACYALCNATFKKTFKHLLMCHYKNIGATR

1A2 = assay: CYP450 induction in human hepatocytes (three donors); type: cell-based; details: 10 μM, human hepatocytes from three donors
rat M1 = target: T1, rat M1 (Rattus norvegicus, UniProt P08482); assay: M1 agonist calcium mobilization assay (rat); type: cell-based
T1 construct: expressed in transfected cells
T1 sequence (P08482 1-460): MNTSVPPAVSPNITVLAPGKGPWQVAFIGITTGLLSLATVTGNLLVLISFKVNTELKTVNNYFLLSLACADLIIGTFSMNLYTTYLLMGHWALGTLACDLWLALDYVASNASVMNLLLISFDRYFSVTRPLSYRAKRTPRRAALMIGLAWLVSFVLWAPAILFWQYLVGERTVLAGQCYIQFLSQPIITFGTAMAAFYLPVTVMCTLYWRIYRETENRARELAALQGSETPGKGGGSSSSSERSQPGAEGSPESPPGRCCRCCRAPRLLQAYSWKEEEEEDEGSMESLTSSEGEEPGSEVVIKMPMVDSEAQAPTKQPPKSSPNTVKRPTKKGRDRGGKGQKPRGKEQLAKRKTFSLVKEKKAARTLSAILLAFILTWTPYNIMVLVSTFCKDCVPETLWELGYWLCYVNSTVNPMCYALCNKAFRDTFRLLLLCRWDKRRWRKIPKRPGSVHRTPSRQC

[4] = 14-day rat toxicology and toxicokinetic study; type: in vivo; details: both sexes, rat, plasma, po, PEG-400, rat
Method: (§1) PAM 7, after a 250 g scale-up, advanced into 14-day rat toxicology studies, with vehicle (PEG-400), 30 mg/kg PO and 300 mg/kg PO cohorts, N = 6 per sex per cohort. […] Higher serum creatinine concentrations were however noted in males at both dose levels (+100% at 30 mg/kg/day and +300% at 300 mg/kg/day). […] Based on the observations of correlative clinical and anatomic kidney toxicity findings in an exploratory 14-day toxicity and toxicokinetics rat study, in conjunction with uncertain margins to projected systemic human therapeutic efficacy and CYP3A4 induction concerns, the development of PAM 7 was discontinued.

rats = assay: 14-day rat toxicology and toxicokinetic study; type: in vivo; details: for cholinergic/SLUDGE adverse effects in 14-day rat study: 30 and 300 mg/kg PO; for change in serum creatinine concentration: males
Method: as §1

CYP 2D6 = CYP 2D6 (Homo sapiens, UniProt P10635); assay: CYP450 inhibition; type: in vitro ADME
Sequence of CYP 2D6 (P10635 whole entry): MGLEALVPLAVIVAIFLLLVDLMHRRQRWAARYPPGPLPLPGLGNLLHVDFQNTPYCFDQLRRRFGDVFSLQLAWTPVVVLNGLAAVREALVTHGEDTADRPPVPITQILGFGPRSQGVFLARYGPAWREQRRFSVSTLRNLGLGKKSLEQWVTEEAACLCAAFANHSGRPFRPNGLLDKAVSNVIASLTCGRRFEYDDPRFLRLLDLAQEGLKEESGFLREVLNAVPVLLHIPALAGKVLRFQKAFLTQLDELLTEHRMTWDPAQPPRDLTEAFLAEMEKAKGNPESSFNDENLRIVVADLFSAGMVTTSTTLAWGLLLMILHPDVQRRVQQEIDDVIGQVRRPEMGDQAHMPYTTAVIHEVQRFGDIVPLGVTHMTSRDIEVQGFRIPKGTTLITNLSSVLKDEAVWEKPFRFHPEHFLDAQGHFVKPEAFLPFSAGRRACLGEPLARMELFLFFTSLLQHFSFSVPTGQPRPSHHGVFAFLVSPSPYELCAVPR

[5] = 300 mg/kg, Day 14, 300 mg/kg PO

Sequence of Neuropeptide Y Y1 (P25929 whole entry): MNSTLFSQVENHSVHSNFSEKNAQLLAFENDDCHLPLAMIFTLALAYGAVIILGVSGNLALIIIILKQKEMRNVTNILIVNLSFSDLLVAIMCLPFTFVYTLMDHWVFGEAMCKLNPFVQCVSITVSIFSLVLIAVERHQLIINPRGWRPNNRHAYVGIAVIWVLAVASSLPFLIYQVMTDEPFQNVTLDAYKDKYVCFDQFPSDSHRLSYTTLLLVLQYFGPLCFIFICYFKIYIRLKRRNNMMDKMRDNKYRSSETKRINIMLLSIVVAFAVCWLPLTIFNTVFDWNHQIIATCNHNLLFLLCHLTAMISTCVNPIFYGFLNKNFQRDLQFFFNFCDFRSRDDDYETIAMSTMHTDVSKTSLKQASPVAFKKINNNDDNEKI
Sequence of Dopamine D4.2 (P21917 with tags, fused parts or gaps DEL265-296): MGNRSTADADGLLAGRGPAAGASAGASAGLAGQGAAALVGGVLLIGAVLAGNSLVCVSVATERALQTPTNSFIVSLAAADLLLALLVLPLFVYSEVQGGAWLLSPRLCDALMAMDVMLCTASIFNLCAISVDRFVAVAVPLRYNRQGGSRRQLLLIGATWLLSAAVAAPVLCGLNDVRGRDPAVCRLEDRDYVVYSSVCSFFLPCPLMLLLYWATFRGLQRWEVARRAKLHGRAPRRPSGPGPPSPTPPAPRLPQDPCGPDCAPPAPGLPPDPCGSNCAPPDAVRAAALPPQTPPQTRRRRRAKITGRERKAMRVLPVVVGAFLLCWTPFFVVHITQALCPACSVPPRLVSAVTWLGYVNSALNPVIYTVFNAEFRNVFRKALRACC

## Cn1cc2c(-c3cc(F)c(CN4Cc5ncccc5C4=O)c(F)c3)ccc(C(C)(C)O)c2n1 [compound 7]
Neuropeptide Y Y1
  inhibition at 10 µM: -10%
Imidazoline I2, Central
  % Inhibition at 10 µM: 64%
Dopamine D4.2
  inhibition at 10 µM: -5%
mice; 56.6 mg/kg IP, 6 h time course
  adverse effects / SLUDGE in modified Irwin battery: minimal adverse effects or SLUDGE were noted
mice; 56.6 mg/kg IP, 6 h time course, listed as VU6052254
  adverse effects / SLUDGE in modified Irwin battery: minimal adverse cholinergic events (SLUDGE) were noted
mice; 100 mg/kg IP
  adverse effects / SLUDGE in modified Irwin battery: more pronounced adverse effects seen
mice; 100 mg/kg IP, listed as VU6052254
  adverse effects / SLUDGE in modified Irwin battery: adverse cholinergic events (SLUDGE) were noted
GABAA, Muscimol, Central
  % Inhibition at 10 µM: -10%
[1]
  inhibition at 10 µM: 7%
Sprague-Dawley rats; 1 mg/kg PO, rat
  free brain concentration at NOR MED: 0.071 µM
Sprague-Dawley rats; 0.3 to 3.0 mg/kg PO, result in words
  effect on recognition index / recognition memory in NOR: dose-dependently increased the recognition index; also recorded: dose-dependently enhanced the recognition memory
Sprague-Dawley rats; PO, 10% Tween 80 in water, male Sprague-Dawley rats
  minimum effective dose (MED) in rat NOR: 1 mg/kg
Sprague-Dawley rats; rat, in vivo
  margin in terms of dose, NOR MED relative to the seizure assay and the Irwin battery: ~50 fold
  margin in terms of total brain exposure, NOR MED relative to the seizure assay and the Irwin battery: 11- to 16 fold
[2]
  inhibition at 10 µM: 8%
CYP450
  time-dependent CYP450 inhibition: no evidence of time-dependent inhibition; also recorded: no CYP450 inhibition or time-dependent CYP450 inhibition liabilities
Adenosine A3
  inhibition at 10 µM: 8%
Interleukin IL-1 R1
  inhibition at 10 µM: -10%
Transporter, GABA
  inhibition at 10 µM: -12%
[3]
  % Inhibition at 10 µM: 4%
Muscarinic M2
  inhibition at 10 µM: 3%
1A2
  1A2 induction: 4.9%
Rat M1; rat M1, % ACh max, n = 5
  rM1 Agonist AChmax (%): 17%
Rat M1; rat M1, n = 5, read-out: rM1 Agonist EC50
  EC50: > 10 µM
[4]; 30 mg/kg, Day 1, 30 mg/kg PO
  AUC(0-t): 224 µM·h
  Cmax: 20.9 µM
[4]; 30 mg/kg, Day 14, 30 mg/kg PO
  AUC(0-t): 107 µM·h
  Cmax: 10 µM
[4]; 300 mg/kg, Day 1, 300 mg/kg PO
  AUC(0-t): 758 µM·h
  Cmax: 37.9 µM
[4]; [5]
  AUC(0-t): 909 µM·h
  Cmax: 52.9 µM
rats; 300 mg/kg/day, result in words
  microscopic pathology of kidney: pyknotic cells were also seen in collecting tubules, and less extensively, in the renal papilla
rats; result in words
  cholinergic/SLUDGE adverse effects in 14-day rat study: No cholinergic/SLUDGE adverse effects were observed
  organ weights or histology: no gross changes on organ weights or histology
rats; result in words, listed as VU6052254
  cholinergic/SLUDGE adverse effects in 14-day rat study: no cholinergic adverse effects
rats; both dose levels, result in words
  microscopic pathology of renal cortex and medulla: dose-related increase in number of pyknotic cells in the lumen of descending tubules/proximal collecting tubules
rats; first of the two printed values (30 mg/kg cohort implied)
  total plasma concentration relative to the plasma concentration at MED in the CFC assay (0.3 mg/kg PO): 125 x
rats; males administered 300 mg/kg, result in words
  fibrinogen concentration: minimally higher fibrinogen concentration
rats; males administered up to 30 mg/kg, result in words
  hematology test results: no PAM 7-related effects noted in hematology test results
rats; 30 mg/kg/day
  change in serum creatinine concentration: +100%
rats; 300 mg/kg/day
  change in serum creatinine concentration: +300%
rats; second of the two printed values (300 mg/kg cohort implied)
  total plasma concentration relative to the plasma concentration at MED in the CFC assay (0.3 mg/kg PO): 227 x
CYP 2D6
  IC50: > 30 µM

Reference: publication PMC12715762, “Discovery of VU6052254: A Novel, Potent M1 Positive Allosteric Modulator” (ACS Chemical Neuroscience, 2025)
